Counter-ions that a name gives are not always drawn. Like-named read-outs stand apart in the source and are kept apart here.
What was measured:
[1] = biological target: Syk (356-635 amino acids) catalytic domain (Homo sapiens (Human), UniProt P43405); assay: Inhibition of enzymatic Syk kinase activity (radiometric); type: biochemical; settings: read-out: IC50 Syk
In short: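 Human Syk (356-635) kinase domain (0.035–7.5 ng/reaction) preincubated with compound 30 minutes at room temperature, then reacted with pG4T substrate, 100 μM ATP (stock) and γ-32P-ATP for 10 minutes at 30° C. Reaction stopped with HCl/ATP, spotted on P81 paper, washed and counted by scintillation. Percent inhibition versus no-compound counts.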

JAK2 = JAK2 (Homo sapiens (Human), UniProt O60674); assay: Inhibition of enzymatic JAK2 kinase activity (TR-FRET); type: biochemical; settings: read-out: IC50 JAK
In short: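 Enzyme preincubated with compound 30 min at RT, then Ulight-poly-GT substrate and ATP added for 60 min at RT. EDTA stop, Eu-antiphosphotyrosine antibody; TR-FRET ratio 665/615 nm (ex 340 nm), blank-corrected; % inhibition versus positive control.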

RBL2H3 cells = assay: Degranulation assay: β-hexosaminidase release during immune complex mediated degranulation; type: cell-based, rat; settings: for inhibition at 1 µM: read-out: Degranulation % inhibition at 1 μM; for EC50: read-out: Degranulation EC50
Method: The objective of this assay was to examine by Fluorescence method the effect of compounds on β-hexosaminidase release during immune complex mediated degranulation in RBL2H3 cells. Compounds were tested for their ability to inhibit the ability of this immune complex to mediate β-hexosaminidase release, in an enzyme assay with […] as substrate. […] Emission 460 nm). [table] [table] RBL2H3 cells were maintained in MEM complete media containing 10% FBS at 70%-80% confluence in a mammalian cell culture CO2 incubator with 5% CO2 at 37° C. 2×10^5 cells/well were plated in 1 mL of complete media and incubated for 5 hours for cell attachment. Complete media was replaced with 1 mL of serum free MEM media containing 1.2 μg/mL of anti-DNP rat IgE as sensitizing agent and further incubated overnight with 5% CO2 at 37° C. […] Cells were further stimulated with 5 μg/mL of DNP-BSA for 60 minutes. Plates were centrifuged for 5 minutes at 1000 rpm and 25 μL of culture supernatant was transferred from each assay well into a 96 well black coated plate. 25 μL β-NAG substrate was added to this mixture and incubated at room temperature for 30 minutes. The reaction was terminated with 100 μL of stop solution and fluorescence was monitored. (Excitation 355 nm; Emission 460 nm) See, Sanderson, (2010), Cellular Immunology, 262(1): 28-34 and Silverman, (2006) MCB, 26(5):1826-1838, which are incorporated herein by reference. The % release of β-Hexosaminidase for the test compound was calculated using the following formula: RBL2H3 cells were maintained in MEM complete media containing 10% FBS at 70-80% confluence in a mammalian cell culture CO2 incubator with 5% CO2 at 37° C. 5×10^4 cells/well were plated in 200 μL of complete media containing 0.3 μg/mL of anti-DNP rat IgE as sensitizing agent for 24 hours at 37° C. & 5% CO2. The following day, cells were washed twice with PIPES buffer for 10 minutes at 37° C. and replenished with serum free MEM media. Cells were treated with various concentrations of test compounds (in 0.5% DMSO) for 15 minutes at 37° C. and 5% CO2. The cells were further stimulated with 0.1 μg/mL of DNP-BSA for 45 minutes. The plates were spun for 5 minutes at 2000 rpm and 25 μL of culture supernatant was then transferred from each assay well into a 96 well black coated plate. […] β-NAG substrate was added and incubated at RT for 30 minutes. After incubation with substrate, 150 μL of stop solution was added and fluorescence was monitored. (Excitation 355 nm; Emission 460 nm). See, Yamamoto, JPET, 306(3):1174-1181 (2003) and Taylor, MCB, 15(8): 4149-4157 (1995), which are herein incorporated by reference. Release of β-hexosaminidase during the degranulation process by immune complex mediated FcεRI stimulation is through the SYK pathway. The % inhibition of β-hexosaminidase release by Syk inhibitor gives information with regard to its Syk inhibition potency.

[2] = Rattus norvegicus, RBL-2H3, 1 μM, Assay Protocol A (24 well format)
[3] = Rattus norvegicus, RBL-2H3, 1 μM, Assay Protocol B (96 well format)
[4] = Rattus norvegicus, RBL-2H3, Assay Protocol B (96 well format)

Chain of JAK2 (O60674 808-1132): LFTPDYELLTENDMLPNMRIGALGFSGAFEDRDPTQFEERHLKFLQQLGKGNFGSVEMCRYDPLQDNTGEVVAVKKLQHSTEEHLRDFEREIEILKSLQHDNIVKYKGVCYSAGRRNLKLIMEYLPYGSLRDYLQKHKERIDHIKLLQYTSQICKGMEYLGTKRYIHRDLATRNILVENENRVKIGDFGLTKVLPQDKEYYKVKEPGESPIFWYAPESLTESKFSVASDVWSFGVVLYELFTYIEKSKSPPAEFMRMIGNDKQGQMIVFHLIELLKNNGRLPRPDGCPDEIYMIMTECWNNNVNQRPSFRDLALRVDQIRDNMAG

SMILES	IC50 [1]	EC50 (RBL2H3 cells; [4])	inhibition at 1 µM (RBL2H3 cells; [3])	further results
CCN1CCN(c2ccc(Nc3nc(-c4ccccc4)nc4cn[nH]c(=O)c34)cc2)CC1 [Example 5, 4-(4-(4-ethylpiperazin-1-yl)phenylamino)-2-phenylpyrimido[4,5-d]pyridazin-5(6H)-one]	< 10 nM	–	–	IC50 (JAK2): < 50 nM; inhibition at 1 µM (RBL2H3 cells; [2]): 100%; EC50 (RBL2H3 cells; Rattus norvegicus, RBL-2H3, Assay Protocol A (24 well format)): 39 nM
CCN1CCN(Cc2ccc(Nc3nc(-c4ccccc4)nc4cn[nH]c(=O)c34)cc2)CC1 [Example 6, 4-(4-((4-ethylpiperazin-1-yl)methyl)phenylamino)-2-phenylpyrimido[4,5-d]pyridazin-5(6H)-one]	< 50 nM	–	–	IC50 (JAK2): < 50 nM; inhibition at 1 µM (RBL2H3 cells; [2]): 50%
O=c1[nH]ncc2nc(-c3ccccc3)nc(Nc3ccc(N4CCNCC4)cc3)c12 [Example 8, 2-phenyl-4-(4-(piperazin-1-yl)phenylamino)pyrimido[4,5-d]pyridazin-5(6H)-one]	< 10 nM	–	–	IC50 (JAK2): < 10 nM; inhibition at 1 µM (RBL2H3 cells; [2]): 98%
O=C(O)CC1CCN(c2ccc(Nc3nc(N4CCCCCC4)nc4cn[nH]c(=O)c34)cc2)CC1 [Example 69, 2-(1-(4-((2-(azepan-1-yl)-5-oxo-5,6-dihydropyrimido[4,5-d]pyridazin-4-yl)amino)phenyl)piperidin-4-yl)acetic acid]	< 10 nM	31 nM	100%	–
O=c1[nH]ncc2nc(N3CCCCCC3)nc(Nc3ccc(OCCN4CCNCC4)cc3)c12 [Example 89, 2-(azepan-1-yl)-4-((4-(2-(piperazin-1-yl)ethoxy)phenyl)amino)pyrimido[4,5-d]pyridazin-5(6H)-one hydrochloride]	–	–	100%	–
O=C(O)CN1CCN(c2ccc(Nc3nc(N4CCCCCC4)nc4cn[nH]c(=O)c34)cc2)CC1 [Example 125, 2-(4-(4-((2-(azepan-1-yl)-5-oxo-5,6-dihydropyrimido[4,5-d]pyridazin-4-yl)amino)phenyl)piperazin-1-yl)acetic acid]	–	238 nM	38%	–
O=C(O)C1CC12CCN(c1ccc(Nc3nc(-c4ccc(F)cc4)nc4cn[nH]c(=O)c34)cc1)CC2 (stereo not shown) [Example 133, 6-(4-((2-(4-fluorophenyl)-5-oxo-5,6-dihydropyrimido[4,5-d]pyridazin-4-yl)amino)phenyl)-6-azaspiro[2.5]octane-1-carboxylic acid]	–	25 nM	98%	–
CCN1CCN(CCOc2ccc(Nc3nc(N4CCCCCC4)nc4cn[nH]c(=O)c34)cc2)CC1 [Example 151, 2-(azepan-1-yl)-4-((4-(2-(4-ethylpiperazin-1-yl)ethoxy)phenyl)amino) pyrimido[4,5-d]pyridazin-5(6H)-one]	–	24 nM	–	–
CN(c1nc(Nc2ccc(N3CCC4(CC3)CC4C(=O)O)cc2)c2c(=O)[nH]ncc2n1)C1CCCCC1 (stereo not shown) [Example 170, 6-(4-((2-(cyclohexyl(methyl)amino)-5-oxo-5,6-dihydropyrimido[4,5-d]pyridazin-4-yl)amino)phenyl)-6-azaspiro[2.5]octane-1-carboxylic acid]	–	107 nM	39%	–
N#CCC1CCN(c2nc(Nc3ccc(CCCN4CCNCC4)cc3)c3c(=O)[nH]ncc3n2)CC1 [Example 174, 2-(1-(5-oxo-4-((4-(3-(piperazin-1-yl)propyl)phenyl)amino)-5,6-dihydropyrimido[4,5-d]pyridazin-2-yl)piperidin-4-yl)acetonitrile]	–	15 nM	99%	–
O=c1[nH]ncc2nc(N3CCCCCC3)nc(Nc3ccc(N4CCN(CCO)CC4)cc3)c12 [Example 190, 2-(azepan-1-yl)-4-((4-(4-(2-hydroxyethyl)piperazin-1-yl)phenyl)amino)pyrimido[4,5-d]pyridiazin-5(6H)-one]	–	–	–	Degranulation % inhibition at 1 μM (RBL2H3 cells; 1 μM, Assay Protocol B (96 well format)): 83%; EC50 (RBL2H3 cells; Assay Protocol B (96 well format)): 21 nM
N#CCC1CCN(c2nc(Nc3ccc(OC(F)F)cc3)c3c(=O)[nH]ncc3n2)CC1 [Example 338, 2-(1-(4-((4-(difluoromethoxy)phenyl)amino)-5-oxo-5,6-dihydropyrimido[4,5-d]pyridazin-2-yl)piperidin-4-yl) acetonitrile]	< 100 nM	–	–	IC50 (JAK2): > 100 nM

The next lines start with results.

IC50 [1]	EC50 (RBL2H3 cells; [4])	SMILES	inhibition at 1 µM (RBL2H3 cells; [3])	further results
< 50 nM	–	O=c1[nH]ncc2nc(-c3ccccc3)nc(Nc3ccc(N4CCOCC4)cc3)c12 [Example 1, 4-(4-morpholinophenylamino)-2-phenylpyrimido[5,4-d]pyridazin-5(6H)-one]	–	IC50 (JAK2): < 50 nM; inhibition at 1 µM (RBL2H3 cells; [2]): 85%
< 50 nM	352 nM	N#CCC1CCN(c2nc(Nc3ccc(N4CCC5(CC4)CC5C(=O)O)cc3)c3c(=O)[nH]ncc3n2)CC1 (stereo not shown) [Example 66, 6-(4-((2-(4-(cyanomethyl)piperidin-1-yl)-5-oxo-5,6-dihydropyrimido[4,5-d]pyridazin-4-yl)amino)phenyl)-6-azaspiro[2.5]octane-1-carboxylic acid]	75%	–
< 100 nM	1.2 nM	O=C(c1ccc(Nc2nc(N3CCCCCC3)nc3cn[nH]c(=O)c23)cc1)N1CCOCC1 [Example 68, 2-(azepan-1-yl)-4-((4-(morpholine-4-carbonyl)phenyl)amino)pyrimido[4,5-d]pyridazin-5(6H)-one]	100%	–
–	32 nM	N#CCC1CCN(c2ccc(Nc3nc(N4CCC(CC#N)CC4)nc4cn[nH]c(=O)c34)cn2)CC1 [Example 103, 2-(1-(5-((2-(4-(cyanomethyl)piperidin-1-yl)-5-oxo-5,6-dihydropyrimido[4,5-d]pyridazin-4-yl)amino)pyridin-2-yl)piperidin-4-yl)acetonitrile]	87%	–
–	95 nM	CC1CC(C)CN(c2nc(Nc3ccc(N4CCC(CC(=O)O)CC4)cc3)c3c(=O)[nH]ncc3n2)C1 (stereo not shown) [Example 117, 2-(1-(4-((2-(3,5-dimethylpiperidin-1-yl)-5-oxo-5,6-dihydropyrimido[4,5-d]pyridazin-4-yl)amino)phenyl)piperidin-4-yl)acetic acid]	89%	–
–	55 nM	O=c1[nH]ncc2nc(N3CCCCCC3)nc(Nc3ccc(OCCN4CCCNCC4)cc3)c12 [Example 164, 4-((4-(2-(1,4-diazepan-1-yl)ethoxy)phenyl)amino)-2-(azepan-1-yl)pyrimido[4,5-d]pyridazin-5(6H)-one]	–	–
< 50 nM	230 nM	N#CCC1CCN(c2nc(Nc3ccc(OCCC4CCNCC4)cc3)c3c(=O)[nH]ncc3n2)CC1 [Example 169, 2-(1-(5-oxo-4-((4-(2-(piperidin-4-yl)ethoxy)phenyl)amino)-5,6-dihydropyrimido[4,5-d]pyridazin-2-yl)piperidin-4-yl)acetonitrile]	17%	–
< 10 nM	29 nM	CCN1CCN(CCc2ccc(Nc3nc(N4CCCCCC4)nc4cn[nH]c(=O)c34)cc2)CC1 [Example 209, 2-(azepan-1-yl)-4-((4-(2-(4-ethylpiperazin-1-yl)ethyl)phenyl)amino) pyrimido[4,5-d]pyridazin-5(6H)-one]	81%	–
–	20 nM	N#CCC1CCN(c2nc(Nc3ccc(N4CCC(F)CC4)cc3)c3c(=O)[nH]ncc3n2)CC1 [Example 290, 2-(1-(4-((4-(4-fluoropiperidin-1-yl)phenyl)amino)-5-oxo-5,6-dihydropyrimido[4,5-d]pyridazin-2-yl)piperidin-4-yl)acetonitrile]	100%	–
